Read-outs that look alike come from different tables or passages of the source.
What was measured:
[1] = system: DNA; conditions: for Fluorescent Intensity: 7.5 μg DNA, 7.5 μl ethidium bromide buffer
Method: A stock solution of 1.26 μM ethidium bromide containing 2 mM HEPES, 8 mM sodium chloride and 0.05 mM EDTA (pH=7) was prepared.

[2] = system: B16 melanoma; conditions: 40 mg/kg intraperitoneal, samples up to 72 hours after injection, compared with TCA-insoluble fraction
Method: Tissue samples were taken up to 72 hours after the injection. The samples were treated with trichloroacetic acid (TCA), such that the TCA-insoluble fraction contained the DNA and high molecular weight proteins, and the TCA-soluble fraction contained the cytoplasmic and membrane components of the cells. Inductively-coupled plasma mass spectrometry (ICP-MS) was used to measure the concentration of indium ions in the TCA-insoluble and TCA-soluble fractions.

[3] = system: KHJJ murine mammary carcinoma tumors; test: Auger electron therapy: tumor volume after 103Pd brachytherapy seed implantation with or without PtTMPyP(4); format: in vivo, BALB/C mice; conditions: for Tumor volume, mm^3 ± standard error, Auger Electron Therapy: 103 Pd seeds in combination with PtTMPyP(4): with 103Pd seeds
Method: General description. On day 0, after measurements of the length, width and height of the tumors, palladium-103 brachytherapy seeds were implanted into 12 KHJJ murine mammary carcinoma tumors borne on the thighs of 12 BALB/C mice. Twenty-four hours after seed implantation, 40 mg/kg, platinum (II)-tetrakis(N-methyl-4-pyridyl) porphyrin [PtTMPyP(4)], in the form of its chloride salt, was administered i.p. as a single bolus injection of 200 μl to the six mice undergoing AET. Tumor volume measurements were obtained two to three times weekly. Drug was also administered on days 5 (30 mg/kg), and 19 (20 mg/kg) following seed implantation.
Tumor. Prior to the experiment, tumors were excised from the donor mouse in a sterile environment, and fragmented into 1-2 mm sections in a Petri dish. After anesthetizing each mouse with ketamine/xylazine (10:1), a small slit was prepared through the skin on the thigh, ˜5 mm above and lateral to the distal femur of the right knee. To assure subcutaneous implantation of the tumor fragment, a magnifying glass with a fluorescent light was used to observe the sheen on the fascia surrounding the three sides of the ‘pocket’ produced by the slit. An 18 gauge trochar, into whose bevel a tumor fragment had been inserted, was positioned into the ‘pocket’. A stylette was used to push the fragment into the ‘pocket’. Tumors were implanted either 12 or 15 days prior to the experiment. Upon verification of tumor growth, those tumors of adequate size to accommodate the seed implant, were randomized into treatment groups (AET or radiation only) using a coin flip.
Measurements of tumor volume. Using a digital caliper, the length, width, and height of the tumors were measured. Being ellipsoid in their growth pattern, tumor volume was determined according to the formula, […].
Seed implantation. On day 0, after weighing the mice and measuring the length, width and height of the tumors, palladium-103 brachytherapy seeds (˜2.2 mCi in activity; Theragenics) were implanted into the thigh tumors as follows. The anesthetized mouse was positioned on a board whose angle was ˜45°. The tumor bearing leg was inserted through an elastic band, secured through the board. The foot was taped to the board. An 18 gauge trochar with a funnel head that was supported by a brace on a ring stand, was inserted into the center to the tumor. The seed, previously sterilized by dipping in ETOH, rinsing in a sterile PBS solution, and air-dried, was placed in the funnel of the trochar using long-nosed forceps. A stylette was used to insert the seed into the tumor, after which the trochar was withdrawn from the tumor and Neosporin was applied to the wound.
Drug delivery. The day after seed implantation (day 1), 40 mg/kg of PtTMPyP(4), in the form of its chloride salt, was administered intraperitoneally to the mice in the AET treatment group. On day 5, […] of PtTMPyP(4) was injected i.p., and on day 19, a dosage of 20 mg/kg was injected i.p.

C[n+]1ccc(-c2c3nc(c(-c4cc[n+](C)cc4)c4ccc([n-]4)c(-c4cc[n+](C)cc4)c4nc(c(-c5cc[n+](C)cc5)c5ccc2[n-]5)C=C4)C=C3)cc1.[In+3] [In^3+-tetra(N-methyl-4-pyridyl)-porphyrin]
Fluorescent Intensity ([1]; 0.25 μg complex): 85% | Fluorescent Intensity ([1]; 0.50 μg complex): 73% | Fluorescent Intensity ([1]; 0.75 μg complex): 63% | Fluorescent Intensity ([1]; 1.00 μg complex): 54% | Fluorescent Intensity ([1]; 1.25 μg complex): 47% | Fluorescent Intensity ([1]; 1.50 μg complex): 41% | Fluorescent Intensity ([1]; 1.75 μg complex): 35% | Fluorescent Intensity ([1]; 2.00 μg complex): 30% | Fluorescent Intensity ([1]; 2.25 μg complex): 26% | Fluorescent Intensity ([1]; 2.50 μg complex): 22% | Fluorescent Intensity ([1]; 2.75 μg complex): 19% | Fluorescent Intensity ([1]; 3.00 μg complex): 16% | Fluorescent Intensity ([1]; 3.25 μg complex): 13.4% | Fluorescent Intensity ([1]; 3.50 μg complex): 12% | Fluorescent Intensity ([1]; 3.75 μg complex): 10% | Fluorescent Intensity ([1]; 4.00 μg complex): 9% | binding to DNA by displacement of ethidium bromide (in words) ([1]; fluorescence decreases with increasing complex concentration, FIG. 2): displaces the ethidium bromide and becomes bound to the DNA | number of indium ions per cell in the TCA-soluble fraction (cytoplasmic and membrane components) [2]: lesser amount

CN1C=CC(c2c3nc(c(C4=CCN(C)C=C4)c4ccc([nH]4)c(C4=CCN(C)C=C4)c4nc(c(C5=CCN(C)C=C5)c5ccc2[nH]5)C=C4)C=C3)=CC1.[Pt+2] [PtTMPyP(4), platinum (II)-tetrakis(N-methyl-4-pyridyl) porphyrin]
effect on tumor growth compared with radiation alone or no treatment (in words) ([3]; AET group, FIG. 4, mean tumor volume): significant delay in tumor control | Tumor volume, mm^3 ± standard error, Auger Electron Therapy: 103 Pd seeds in combination with PtTMPyP(4) ([3]; day 0 post seed implantation (before first drug dose)): 117.5 ± 18.6 mm^3 | Tumor volume, mm^3 ± standard error, Auger Electron Therapy: 103 Pd seeds in combination with PtTMPyP(4) ([3]; day 3 post seed implantation, i.p. 40 mg/kg day 1, 30 day 5, 20 day 19): 112.8 ± 15.3 mm^3 | Tumor volume, mm^3 ± standard error, Auger Electron Therapy: 103 Pd seeds in combination with PtTMPyP(4) ([3]; day 5 post seed implantation, i.p. 40 mg/kg day 1, 30 day 5, 20 day 19): 110.6 ± 25.7 mm^3 | Tumor volume, mm^3 ± standard error, Auger Electron Therapy: 103 Pd seeds in combination with PtTMPyP(4) ([3]; day 7 post seed implantation, i.p. 40 mg/kg day 1, 30 day 5, 20 day 19): 121.5 ± 29.4 mm^3 | Tumor volume, mm^3 ± standard error, Auger Electron Therapy: 103 Pd seeds in combination with PtTMPyP(4) ([3]; day 9 post seed implantation, i.p. 40 mg/kg day 1, 30 day 5, 20 day 19): 123.1 ± 26.9 mm^3 | Tumor volume, mm^3 ± standard error, Auger Electron Therapy: 103 Pd seeds in combination with PtTMPyP(4) ([3]; day 12 post seed implantation, i.p. 40 mg/kg day 1, 30 day 5, 20 day 19): 150.7 ± 31.5 mm^3 | Tumor volume, mm^3 ± standard error, Auger Electron Therapy: 103 Pd seeds in combination with PtTMPyP(4) ([3]; day 15 post seed implantation, i.p. 40 mg/kg day 1, 30 day 5, 20 day 19): 116.5 ± 44.9 mm^3 | Tumor volume, mm^3 ± standard error, Auger Electron Therapy: 103 Pd seeds in combination with PtTMPyP(4) ([3]; day 19 post seed implantation, i.p. 40 mg/kg day 1, 30 day 5, 20 day 19): 175.6 ± 69.2 mm^3 | Tumor volume, mm^3 ± standard error, Auger Electron Therapy: 103 Pd seeds in combination with PtTMPyP(4) ([3]; day 21 post seed implantation, i.p. 40 mg/kg day 1, 30 day 5, 20 day 19): 200.1 ± 81.9 mm^3 | Tumor volume, mm^3 ± standard error, Auger Electron Therapy: 103 Pd seeds in combination with PtTMPyP(4) ([3]; day 23 post seed implantation, i.p. 40 mg/kg day 1, 30 day 5, 20 day 19): 232.6 ± 91.2 mm^3 | Tumor volume, mm^3 ± standard error, Auger Electron Therapy: 103 Pd seeds in combination with PtTMPyP(4) ([3]; day 27 post seed implantation, i.p. 40 mg/kg day 1, 30 day 5, 20 day 19): 280.2 ± 90.6 mm^3 | factor between mean tumor volume with seeds only and with seeds plus drug ([3]; day 32, 103Pd seeds alone versus 103Pd seeds plus PtTMPyP(4)): 5 | Tumor volume, mm^3 ± standard error, Auger Electron Therapy: 103 Pd seeds in combination with PtTMPyP(4) ([3]; day 32 post seed implantation, i.p. 40 mg/kg day 1, 30 day 5, 20 day 19, 40 mg/kg): 356.2 ± 133.9 mm^3
